Columns and labels:
BsVdcCD = molecular target: T1, BsVdcCD (Bacillus subtilis, UniProt P94405); assay: overnight endpoint HPLC decarboxylation assay; type: biochemical; conditions: 5 mM substrate, 10 µM enzyme, prFMN, MnCl2, 100 mM KPi pH 6, anaerobic, 18 h
T1 construct: gene bsdC; VdcC and VdcD expressed in E. coli BL21(DE3), His tag on C-terminus of VdcC and/or N-terminus of VdcD; reconstituted in vitro with prFMN and Mn2+; with Phenolic acid decarboxylase subunit D
T1 sequence (P94405 1-473): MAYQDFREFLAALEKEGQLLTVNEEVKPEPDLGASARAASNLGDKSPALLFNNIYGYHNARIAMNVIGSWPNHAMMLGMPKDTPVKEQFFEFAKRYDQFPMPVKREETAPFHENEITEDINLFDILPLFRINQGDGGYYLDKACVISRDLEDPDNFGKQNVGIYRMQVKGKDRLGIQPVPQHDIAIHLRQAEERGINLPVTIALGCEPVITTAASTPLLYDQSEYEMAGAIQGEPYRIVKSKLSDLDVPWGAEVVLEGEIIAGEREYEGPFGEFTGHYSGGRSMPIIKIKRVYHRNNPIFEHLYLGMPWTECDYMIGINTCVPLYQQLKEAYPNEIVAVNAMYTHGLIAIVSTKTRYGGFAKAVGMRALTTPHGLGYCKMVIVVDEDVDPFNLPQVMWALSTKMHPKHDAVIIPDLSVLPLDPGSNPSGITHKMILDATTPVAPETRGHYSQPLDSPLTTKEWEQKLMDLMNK
T1 sequence (C0H3U9 1-75 partner): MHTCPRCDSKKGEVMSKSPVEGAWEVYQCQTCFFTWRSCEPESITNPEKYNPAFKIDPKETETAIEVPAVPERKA

[1] = molecular target: Sedimentibacter hydroxybenzoicus VdcC, untagged (Sedimentibacter hydroxybenzoicus); assay: crystal structure; apo complexes; F222 closed (7AE4), P1 open (7AE5), P212121 ShVdcCD^V59X (7AE7); molecular replacement with E. coli UbiD domains

| Compound | overnight endpoint HPLC decarboxylation assay (BsVdcCD) | stoichiometry N [1] |
| --- | --- | --- |
| COc1cc(C(=O)O)cc(OC)c1O [syringic acid] | syringic acid, for which product formation could only be detected in the presence of BsVdcCD |  |
| COc1cc(C(=O)O)ccc1O [vanillic acid] | the VdcC + VdcD reconstituted samples demonstrated considerable activity in contrast to isolated VdcC |  |
| Sedimentibacter hydroxybenzoicus VdcC, untagged (enzyme) |  | 6 |
